Laboratory results taken from patent US8975259B2, “Compositions and methods for inhibiting G protein signaling” (University of Rochester, priority 2007, dated 2015).

Legend:
PLCβ3-bGβ1γ2 interaction = biological target: T1, PLCβ3-bGβ1γ2 interaction (UniProt P54311+P63212); assay: PLCβ3 binding to biotinylated Gβ1γ2 (avidin agarose precipitation); conditions: M119 10 μM, M201 1 μM; result in words
T1 construct: made in house; host or cells: bGβ1γ2: Sf9 insect cells
Experimental: Purified PLCβ2 (0.25 ng) was assayed in the presence (▴) or absence (▪) of 100 nM purified Gβ1γ2. […] Assays contained 10 ng of purified p101/p110 PI3Kγ heterodimer with or without 100 nM purified Gβ1γ2. Left panel: (▴) 100 nM Gβ1γ2 or (▪) no βγ. […] M119 or M201 and 25 nM purified GRK2 were added simultaneously to 250 nM biotinylated Gβ1γ2 (bGβ1γ2) immobilized on streptavidin agarose. GRK2 was detected with antibody to GRK2. Data are representative (mean ±SEM, except D) repeated at least three times each. […] 30 nM bGβ1γ2 was incubated with either 30 nM PLCβ2 or PLCβ3 in the presence or absence of M119 or M201 for 16 h at 4° C. before precipitation with avidin agarose and detection with PLCβ2,or Gβ antibodies. […] Same as 4E with PLCβ3.

[1] = tested on: M3 muscarinic receptor-dependent Ca2+ release in HEK-293 cells; assay: Carbachol-dependent Ca2+ release in HEK-293 cells expressing M3 muscarinic receptor; type: cell-based; conditions: 10 μM; result in words
[2] = tested on: isoproterenol-induced heart failure in mice; assay: Isoproterenol mini-osmotic pump acute model of heart failure; type: in vivo, mouse; conditions: result in words
Experimental: Conscious echocardiography was performed on animals prior to sacrifice. % FS is a measure of cardiac contractility derived from end-diastolic and end-systolic diameters. […] Heart weight to body weight ratio (HW:BW) was assessed upon sacrifice of the animal. (n=7-8 per condition)
Immunoblot for GRK2 of equal amounts of total protein isolated from hearts of adult C57/B16 male mice following 1 week of either vehicle or Iso (30 mg/kg/day) delivered by miniosmotic pumps (Veh, . . . or Iso, . . . , respectively) and concurrent daily vehicle or M119 (100 mg/kg) daily injections ( . . . , Veh, or . . . , Cmpd, respectively).
Based on the positive cardiomyocyte data, the cardiac effects of M119 were tested in vivo. The NCI compound database and chemical library was originally assembled to investigate these compounds utilizing both a yeast high-throughput screening assay as well as in vivo compound delivery to mice for 1-2 weeks. […] Wild type mice were implanted with mini-osmotic pumps filled with either vehicle or the non-selective β-AR agonist isoproterenol. These pumps release a constant fluid volume, and 30 mg/kg/day of isoproterenol (Iso) has been used to attain pathologic cardiac hypertrophy and dysfunction in one week Immediately following mini-osmotic pump implantation of vehicle or Iso (30 mg/kg/day), mice from each group were injected intraperitoneal (IP) once daily with equal volumes of either vehicle or a moderate dose of M119 (100 mg/kg) for seven days. […] The Iso pumped animals indeed suffered a decrease of cardiac function coupled with pathologic hypertrophy.

N-type Ca^2+ channels = assay: Norepinephrine-dependent inhibition of N-type Ca2+ channels in rat superior cervical ganglion neurons (patch clamp); type: cell-based; conditions: initial analysis; result in words
Experimental: Norepinephrine inhibits N-type Ca^2+ channels through a Gβγ dependent mechanism in SCG neurons and activates GIRK channels when they are heterologously expressed. Neurons are pretreated with varying concentrations of compounds (either in the bath or included in the patch pipette), and NE dependent inhibition of N-type Ca^2+ channels are measured in the whole cell patch clamp configuration. […] This voltage dependence is diagnostic of Gβγ-mediated modulation. The “facilitation” ratio of the postpulse current to the prepulse current (during which inhibition is strong) provides a quantitative measure of the degree of Gβγ modulation. Uninhibited currents generally have a facilitation ratio around 1 so cells pretreated with compounds that inhibit Gβγ interactions with the channel causes the facilitation ratio to approach 1. The effects on responses to other receptors such as transfected μ-opioid receptors or endogenous M4 muscarinic receptors are also examined. GIRK channel regulation is assessed by microinjecting GIRK1/2 subunits in SCG neurons and measuring K^+ channel regulation by NE at varying concentrations of compound. Basal K^+ channel activity and Ca^2+ channel activity is assessed to look for non-specific effects of Gβγ blockers. […]

T1 sequence (P54311 whole entry): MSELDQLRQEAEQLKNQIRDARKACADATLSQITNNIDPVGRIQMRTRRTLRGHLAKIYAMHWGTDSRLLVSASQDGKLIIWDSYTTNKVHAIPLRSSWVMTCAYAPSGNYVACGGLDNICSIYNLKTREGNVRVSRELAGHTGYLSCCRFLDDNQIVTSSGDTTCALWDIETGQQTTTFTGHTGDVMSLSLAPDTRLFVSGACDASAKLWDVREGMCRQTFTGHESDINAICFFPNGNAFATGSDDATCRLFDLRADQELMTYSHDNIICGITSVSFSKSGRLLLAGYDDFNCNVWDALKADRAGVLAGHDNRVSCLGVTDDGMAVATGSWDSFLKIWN
T1 sequence (P63212 2-68 limits assumed): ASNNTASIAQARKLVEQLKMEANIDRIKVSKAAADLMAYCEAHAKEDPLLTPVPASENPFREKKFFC

Question: How did the “effect on direct binding of bGβ1γ2 to PLCβ3” value (PLCβ3-bGβ1γ2 interaction) turn out when `O=C(O)C1CCCCC1c1c2ccc(=O)c(O)c-2oc2c(O)c(O)ccc12` (stereo not shown) [Compound M119, cyclohexanecarboxylic acid, 2-(4,5,6-trihydroxy-3-oxo-3H-xanthen-9-yl)-(9cl)] was run?
Answer: inhibited

Question: What about the “effect on carbachol-dependent increases in Ca^2+” value [1] of the same compound?
Answer: no effect

Question: What about the “effect on interstitial cardiac fibrosis” value ([2]; Iso 30 mg/kg/day pump, M119 100 mg/kg IP daily, seven days) of the same compound?
Answer: reduction in interstitial cardiac fibrosis

Question: What about the “effect on cardiac function and morphology in Iso pumped animals” value ([2]; Iso 30 mg/kg/day pump, M119 100 mg/kg IP once daily, seven days) of the same compound?
Answer: near normalization of cardiac function and morphology

Question: What about the “effect on GRK2 expression in the Iso HF model” value ([2]; M119 100 mg/kg IP daily) of the same compound?
Answer: nearly normalized

Question: What about the “effect of compound alone on cardiac function or morphology” value ([2]; vehicle pump, M119 100 mg/kg IP daily) of the same compound?
Answer: no effect

Question: And the “effect on NE dependent inhibition of N-type Ca^2+ channels” value (N-type Ca^2+ channels)?
Answer: unaffected
